This passage reports EC50 results from patent US8722849B2, “Polypeptides” (Novo Nordisk A/S, priority 2011, dated 2014).

The target of experiment [1] is T1, human amylin receptor (amylin 3(a) receptor: human calcitonin receptor + RAMP-3) (Homo sapiens, UniProt O60896+P30988).
T1 construct: expressed in transfected cells; host or cells: BHK570
T1 sequence (P30988 25-474): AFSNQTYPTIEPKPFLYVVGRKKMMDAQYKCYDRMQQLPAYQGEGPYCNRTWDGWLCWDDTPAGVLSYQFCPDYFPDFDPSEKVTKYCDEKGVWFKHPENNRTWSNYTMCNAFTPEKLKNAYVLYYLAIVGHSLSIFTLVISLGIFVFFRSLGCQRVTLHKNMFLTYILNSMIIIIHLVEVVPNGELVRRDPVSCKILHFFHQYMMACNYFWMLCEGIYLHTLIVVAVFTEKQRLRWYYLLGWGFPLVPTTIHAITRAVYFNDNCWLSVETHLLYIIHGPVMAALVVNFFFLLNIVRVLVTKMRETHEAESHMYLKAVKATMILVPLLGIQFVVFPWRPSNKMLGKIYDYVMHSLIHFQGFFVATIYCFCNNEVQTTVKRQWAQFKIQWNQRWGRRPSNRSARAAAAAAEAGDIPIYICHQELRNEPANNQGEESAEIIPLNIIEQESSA
T1 sequence (O60896 24-148 partner): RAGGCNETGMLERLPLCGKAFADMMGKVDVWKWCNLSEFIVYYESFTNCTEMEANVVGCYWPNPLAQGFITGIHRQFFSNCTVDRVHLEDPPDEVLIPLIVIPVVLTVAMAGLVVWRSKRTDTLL
The experiment in a line: Assay (II)a functional CRE-luciferase assay, human amylin receptor. As to conditions: human amylin receptor. The format is cell-based. An excerpt:
(§1) 1. Luciferase Assay Outline
(§2) Activation of calcitonin and amylin (coexpression of calcitonin receptor and receptor activity modifying proteins (RAMP)) receptors lead to increased intracellular concentrations of cAMP. Consequently, transcription is activated by promoters containing multiple copies of the cAMP response element (CRE). It is thus possible to measure amylin activity by the use of a CRE luciferase reporter gene introduced into BHK cells also expressing calcitonin or amylin receptors.
(§3) A BHK570 cell line was stably transfected with the human calcitonin receptor and a CRE-responsive luciferase reporter gene. The cell line was further transfected with RAMP-3, using standard methods. This turns the calcitonin receptor into an amylin 3(a) receptor. Methotrexate, Neomycin, and Hygromycin are selection markers for luciferase, the calcitonin receptor, and RAMP-3, respectively.
(§4) To perform activity assays, BHK calcitonin (a) receptor- or amylin 3(a)-receptor/CRE-luc cells were seeded in white 96 well culture plates at a density of about 20.000 cells/well. […] Further, 50 μl/well of standard or sample in assay buffer were added. After 3 hours incubation at 37° C. and 5% CO2, the assay medium with standard or sample were removed and replaced by 100 μl/well PBS. Further, 100 μl/well LucLite™ was added. The plates were sealed and incubated at room temperature for 30 minutes. Finally, luminescence was measured on a TopCounter (Packard) in SPC (single photon counting) mode.

Experiment [2] concerns the target T2, human calcitonin receptor (Homo sapiens, UniProt P30988).
T2 construct: expressed in transfected cells; host or cells: BHK570
T2 sequence (P30988 25-474): T1 sequence (P30988 25-474)
The experiment in a line: Assay (II)a functional CRE-luciferase assay, human calcitonin receptor. The experiment is classed as cell-based.
Description: as §1, §2, §3, §4

The mark [3] stands for this setting: Table 7, human calcitonin (CTa) receptor.

Like-named read-outs stand apart in the source and are kept apart here. Starred links: 1 amine or outer side, 2 acyl side, 3 side chain; linkers in the order of their positions; H or OH if unused. Positions of bridges follow the written chain, without caps; N, C: chain ends. Residues, ends and D or L forms follow the SMILES beside them. *: point of attachment. C20 diacid = O=C(O)CCCCCCCCCCCCCCCCCCC(=O)*; γGlu = O=C(O)[C@H](CCC(=O)[*:2])N[*:1]

Take `CC[C@H](C)[C@H](NC(=O)[C@@H]1CCCN1C(=O)CNC(=O)[C@H](Cc1ccccc1)NC(=O)[C@H](CC(N)=O)NC(=O)[C@H](CC(N)=O)NC(=O)[C@H](CO)NC(=O)[C@H](CO)NC(=O)[C@H](Cc1c[nH]cn1)NC(=O)[C@H](CCCNC(=N)N)NC(=O)[C@H](CC(C)C)NC(=O)[C@H](Cc1ccccc1)NC(=O)[C@H](CCCNC(=N)N)NC(=O)[C@H](C)NC(=O)[C@H](CC(C)C)NC(=O)[C@H](CCCNC(=N)N)NC(=O)[C@H](CCC(N)=O)NC(=O)[C@@H](NC(=O)[C@H](C)NC(=O)[C@@H]1CSSC[C@H](NC(=O)[C@H](CCCCN)NC(=O)CC[C@H](NC(=O)CCCCCCCCCCCCCCCCCCC(=O)O)C(=O)O)C(=O)N[C@@H](CC(N)=O)C(=O)N[C@@H]([C@@H](C)O)C(=O)N[C@@H](C)C(=O)N[C@@H]([C@@H](C)O)C(=O)N1)[C@@H](C)O)C(=O)N[C@@H](CC(C)C)C(=O)N1CCC[C@H]1C(=O)N1CCC[C@H]1C(=O)N[C@H](C(=O)N[C@@H](CC(N)=O)C(=O)N[C@H](C(=O)NCC(=O)N[C@@H](CO)C(=O)N[C@@H](CC(N)=O)C(=O)N[C@H](C(=O)N1CCC[C@H]1C(N)=O)[C@@H](C)O)C(C)C)[C@@H](C)O` [Example 152, N-alpha-[(S)-4-Carboxy-4-(19-carboxynonadecanoylamino)butyryl]-[Arg14,Arg17,Pro37]-pramlintide] ({C20 diacid-γGlu}-KCNTATCATQRLARFLRHSSNNFGPILPPTNVGSNTP-NH2; disulfide 2-7 (inferred); C-terminus assumed): the values for the EC50 in experiment [1] (Table 7) and in experiment [2] (setting [3]) were 0.129 nM and 0.453 nM, respectively.
As to `CC[C@H](C)[C@H](NC(=O)[C@@H]1CCCN1C(=O)CNC(=O)[C@H](Cc1ccccc1)NC(=O)[C@H](CC(N)=O)NC(=O)[C@H](CC(N)=O)NC(=O)[C@H](CO)NC(=O)[C@H](CO)NC(=O)[C@H](CCCNC(=N)N)NC(=O)[C@H](Cc1c[nH]cn1)NC(=O)[C@H](CC(C)C)NC(=O)[C@H](Cc1ccccc1)NC(=O)[C@H](CCC(=O)O)NC(=O)[C@H](C)NC(=O)[C@H](CC(C)C)NC(=O)[C@H](CCCNC(=N)N)NC(=O)[C@H](CCC(N)=O)NC(=O)[C@@H](NC(=O)[C@H](CCC(=O)O)NC(=O)[C@@H]1CSSC[C@H](NC(=O)[C@H](Cc2c[nH]cn2)NC(=O)CC[C@H](NC(=O)CCCCCCCCCCCCCCCCCCC(=O)O)C(=O)O)C(=O)N[C@@H](CC(N)=O)C(=O)N[C@@H]([C@@H](C)O)C(=O)N[C@@H](C)C(=O)N[C@@H]([C@@H](C)O)C(=O)N1)[C@@H](C)O)C(=O)N[C@@H](CC(C)C)C(=O)N1CCC[C@H]1C(=O)N1CCC[C@H]1C(=O)N[C@H](C(=O)N[C@@H](CC(N)=O)C(=O)N[C@H](C(=O)NCC(=O)N[C@@H](CO)C(=O)N[C@@H](CC(N)=O)C(=O)N[C@H](C(=O)N[C@@H](Cc1ccc(O)cc1)C(N)=O)[C@@H](C)O)C(C)C)[C@@H](C)O` [Example 2, N-alpha-[(S)-4-Carboxy-4-(19-carboxynonadecanoylamino)butyryl]-[His1,Glu8,Glu14,His17,Arg18]-pramlintide] ({C20 diacid-γGlu}-HCNTATCETQRLAEFLHRSSNNFGPILPPTNVGSNTY-NH2; disulfide 2-7 (inferred)), the EC50 (commonly the concentration giving half of the maximal effect) in experiment [1] (Table 6) was found to be 0.602 nM; in experiment [2] (Table 11, read-out: CTa receptor human EC50), 4.3 nM.
In the case of `CC[C@H](C)[C@H](NC(=O)[C@@H]1CCCN1C(=O)CNC(=O)[C@H](Cc1ccccc1)NC(=O)[C@H](CC(N)=O)NC(=O)[C@H](CC(N)=O)NC(=O)[C@H](CO)NC(=O)[C@H](CO)NC(=O)[C@H](Cc1c[nH]cn1)NC(=O)[C@H](CCCNC(=N)N)NC(=O)[C@H](CC(C)C)NC(=O)[C@H](Cc1ccccc1)NC(=O)[C@H](CC(N)=O)NC(=O)[C@H](C)NC(=O)[C@H](CC(C)C)NC(=O)[C@H](CCCNC(=N)N)NC(=O)[C@H](CCC(N)=O)NC(=O)[C@@H](NC(=O)[C@H](C)NC(=O)[C@@H]1CSSC[C@H](NC(=O)[C@H](CCCCN)NC(=O)CC[C@H](NC(=O)CCCCCCCCCCCCCCCCCCC(=O)O)C(=O)O)C(=O)N[C@@H](CC(N)=O)C(=O)N[C@@H]([C@@H](C)O)C(=O)N[C@@H](C)C(=O)N[C@@H]([C@@H](C)O)C(=O)N1)[C@@H](C)O)C(=O)N[C@@H](CC(C)C)C(=O)N1CCC[C@H]1C(=O)N1CCC[C@H]1C(=O)N[C@H](C(=O)N[C@@H](CC(N)=O)C(=O)N[C@H](C(=O)NCC(=O)N[C@@H](CO)C(=O)N[C@@H](CC(N)=O)C(=O)N[C@H](C(=O)N1CCC[C@H]1C(N)=O)[C@@H](C)O)C(C)C)[C@@H](C)O` [Example 154, N-alpha-[(S)-4-Carboxy-4-(19-carboxynonadecanoylamino)butyryl]-[Arg17,Pro37]-pramlintide] ({C20 diacid-γGlu}-KCNTATCATQRLANFLRHSSNNFGPILPPTNVGSNTP-NH2; disulfide 2-7 (inferred); C-terminus assumed), the EC50 in experiment [2] (setting [3]) worked out at 0.057 nM.
For `CC[C@H](C)[C@H](NC(=O)[C@@H]1CCCN1C(=O)CNC(=O)[C@H](Cc1ccccc1)NC(=O)[C@H](CC(N)=O)NC(=O)[C@H](CC(N)=O)NC(=O)[C@H](CO)NC(=O)[C@H](CO)NC(=O)[C@H](Cc1c[nH]cn1)NC(=O)[C@H](CCCNC(=N)N)NC(=O)[C@H](CC(C)C)NC(=O)[C@H](Cc1ccccc1)NC(=O)[C@H](CCC(=O)O)NC(=O)[C@H](C)NC(=O)[C@H](CC(C)C)NC(=O)[C@H](CCCNC(=N)N)NC(=O)[C@H](CCC(N)=O)NC(=O)[C@@H](NC(=O)[C@H](C)NC(=O)[C@@H]1CSSC[C@H](NC(=O)[C@H](CCCNC(=N)N)NC(=O)CNC(=O)CC[C@H](NC(=O)CCCCCCCCCCCCCCCCCCC(=O)O)C(=O)O)C(=O)N[C@@H](CC(N)=O)C(=O)N[C@@H]([C@@H](C)O)C(=O)N[C@@H](C)C(=O)N[C@@H]([C@@H](C)O)C(=O)N1)[C@@H](C)O)C(=O)N[C@@H](CC(C)C)C(=O)N1CCC[C@H]1C(=O)N1CCC[C@H]1C(=O)N[C@H](C(=O)N[C@@H](CC(N)=O)C(=O)N[C@H](C(=O)NCC(=O)N[C@@H](CO)C(=O)N[C@@H](CC(N)=O)C(=O)N[C@H](C(=O)N1CCC[C@H]1C(N)=O)[C@@H](C)O)C(C)C)[C@@H](C)O` [Example 153, N-alpha-[(S)-4-Carboxy-4-(19-carboxynonadecanoylamino)butyryl]-Gly-[Arg1,Glu14,Arg17,Pro37]-pramlintide] ({C20 diacid-γGlu}-GRCNTATCATQRLAEFLRHSSNNFGPILPPTNVGSNTP-NH2; disulfide 3-8 (inferred)), the EC50 came out at 0.043 nM in experiment [1] (Table 6) and 0.041 nM in experiment [2] (setting [3]).
